Experimental data: the supplement of paper PMC10307832

Assays:
Test in all cases: relative viability (nuclei count vs DMSO), 5 days (fraction); higher = more cells survive
CAL-12T = system: CAL-12T
Method in brief: (§1)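 Each reported value is a median over duplicate plates. It expresses relative viability: treated-well nuclei count divided by vehicle-well nuclei count. Lung cancer cell lines in 1536-well plates were dosed by pin tool a day after seeding, alone with one drug or with a fixed anchor-drug dose plus five library-drug doses (not always all listed) in √10 steps, and nuclei were counted after 5 days.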

COR-L 105 = system: COR-L 105
Method in brief: as §1

EKVX = system: EKVX
Method in brief: as §1

EMC-BAC-2 = system: EMC-BAC-2
Method in brief: as §1

H3255 = system: H3255
Method in brief: as §1

LC-2-ad = system: LC-2-ad
Method in brief: as §1

LK-2 = system: LK-2
Method in brief: as §1

LXF-289 = system: LXF-289
Method in brief: as §1

NCI-H1395 = system: NCI-H1395
Method in brief: as §1

NCI-H1437 = system: NCI-H1437
Method in brief: as §1

NCI-H1651 = system: NCI-H1651
Method in brief: as §1

NCI-H1755 = system: NCI-H1755
Method in brief: as §1

NCI-H1793 = system: NCI-H1793
Method in brief: as §1

NCI-H1915 = system: NCI-H1915
Method in brief: as §1

NCI-H1944 = system: NCI-H1944
Method in brief: as §1

NCI-H2085 = system: NCI-H2085
Method in brief: as §1

NCI-H2087 = system: NCI-H2087
Method in brief: as §1

NCI-H2228 = system: NCI-H2228
Method in brief: as §1

NCI-H2347 = system: NCI-H2347
Method in brief: as §1

PC-3 [JPC-3] = system: PC-3 [JPC-3]
Method in brief: as §1

SK-LU-1 = system: SK-LU-1
Method in brief: as §1

SK-MES-1 = system: SK-MES-1
Method in brief: as §1

Structure (SMILES): O=C(O)CCCCC(CCSCc1ccccc1)SCc1ccccc1 (centres undefined) [CPI-613] + CC1(C)CCC(c2ccc(Cl)cc2)=C(CN2CCN(c3ccc(C(=O)NS(=O)(=O)c4ccc(N[C@H](CCN5CCOCC5)CSc5ccccc5)c(S(=O)(=O)C(F)(F)F)c4)cc3)CC2)C1 [Navitoclax] (partner 0.5 µM)
- relative viability (CAL-12T; first compound 5 µM): 1.17
- relative viability (CAL-12T; first compound 15.81 µM): 0.967
- relative viability (CAL-12T; first compound 50 µM): 0.965
- relative viability (CAL-12T; first compound 158.11 µM): 0.0606
- relative viability (CAL-12T; first compound 500 µM): 0.0373
- relative viability (COR-L 105; first compound 5 µM): 0.847
- relative viability (COR-L 105; first compound 15.81 µM): 0.776
- relative viability (COR-L 105; first compound 50 µM): 0.719
- relative viability (COR-L 105; first compound 158.11 µM): 0.297
- relative viability (COR-L 105; first compound 500 µM): 0.286
- relative viability (EKVX; first compound 5 µM): 0.945
- relative viability (EKVX; first compound 15.81 µM): 0.875
- relative viability (EKVX; first compound 50 µM): 0.898
- relative viability (EKVX; first compound 158.11 µM): 0.483
- relative viability (EKVX; first compound 500 µM): 0.951
- relative viability (EMC-BAC-2; first compound 5 µM): 1.15
- relative viability (EMC-BAC-2; first compound 15.81 µM): 1.13
- relative viability (EMC-BAC-2; first compound 50 µM): 1.15
- relative viability (EMC-BAC-2; first compound 158.11 µM): 1.01
- relative viability (EMC-BAC-2; first compound 500 µM): 1.06
- relative viability (H3255; first compound 5 µM): 0.497
- relative viability (H3255; first compound 15.81 µM): 0.476
- relative viability (H3255; first compound 50 µM): 0.337
- relative viability (H3255; first compound 158.11 µM): 0.498
- relative viability (H3255; first compound 500 µM): 0.562
- relative viability (LC-2-ad; first compound 5 µM): 0.431
- relative viability (LC-2-ad; first compound 15.81 µM): 0.354
- relative viability (LC-2-ad; first compound 50 µM): 0.297
- relative viability (LC-2-ad; first compound 158.11 µM): 0.0601
- relative viability (LC-2-ad; first compound 500 µM): 0.0074
- relative viability (LK-2; first compound 5 µM): 0.957
- relative viability (LK-2; first compound 15.81 µM): 0.922
- relative viability (LK-2; first compound 50 µM): 1.05
- relative viability (LK-2; first compound 158.11 µM): 0.966
- relative viability (LK-2; first compound 500 µM): 0.87
- relative viability (LXF-289; first compound 5 µM): 0.898
- relative viability (LXF-289; first compound 15.81 µM): 0.894
- relative viability (LXF-289; first compound 50 µM): 0.905
- relative viability (LXF-289; first compound 158.11 µM): 0.157
- relative viability (LXF-289; first compound 500 µM): 0.0115
- relative viability (NCI-H1395; first compound 5 µM): 1.48
- relative viability (NCI-H1395; first compound 15.81 µM): 1.03
- relative viability (NCI-H1395; first compound 50 µM): 1.08
- relative viability (NCI-H1395; first compound 158.11 µM): 1.16
- relative viability (NCI-H1395; first compound 500 µM): 0.961
- relative viability (NCI-H1437; first compound 5 µM): 1.03
- relative viability (NCI-H1437; first compound 15.81 µM): 0.957
- relative viability (NCI-H1437; first compound 50 µM): 1.03
- relative viability (NCI-H1437; first compound 158.11 µM): 0.199
- relative viability (NCI-H1437; first compound 500 µM): 0.0367
- relative viability (NCI-H1651; first compound 5 µM): 1.04
- relative viability (NCI-H1651; first compound 15.81 µM): 0.866
- relative viability (NCI-H1651; first compound 50 µM): 1
- relative viability (NCI-H1651; first compound 158.11 µM): 0.17
- relative viability (NCI-H1651; first compound 500 µM): 0.152
- relative viability (NCI-H1755; first compound 5 µM): 0.945
- relative viability (NCI-H1755; first compound 15.81 µM): 0.934
- relative viability (NCI-H1755; first compound 50 µM): 0.935
- relative viability (NCI-H1755; first compound 158.11 µM): 0.831
- relative viability (NCI-H1755; first compound 500 µM): 0.161
- relative viability (NCI-H1793; first compound 5 µM): 0.393
- relative viability (NCI-H1793; first compound 50 µM): 0.346
- relative viability (NCI-H1793; first compound 158.11 µM): 0.363
- relative viability (NCI-H1793; first compound 500 µM): 0.1
- relative viability (NCI-H1915; first compound 5 µM): 0.781
- relative viability (NCI-H1915; first compound 15.81 µM): 0.778
- relative viability (NCI-H1915; first compound 50 µM): 0.724
- relative viability (NCI-H1915; first compound 158.11 µM): 0.552
- relative viability (NCI-H1915; first compound 500 µM): 0.55
- relative viability (NCI-H1944; first compound 5 µM): 0.998
- relative viability (NCI-H1944; first compound 15.81 µM): 1.01
- relative viability (NCI-H1944; first compound 50 µM): 1.02
- relative viability (NCI-H1944; first compound 158.11 µM): 0.769
- relative viability (NCI-H1944; first compound 500 µM): 0.627
- relative viability (NCI-H2085; first compound 5 µM): 0.988
- relative viability (NCI-H2085; first compound 15.81 µM): 1.04
- relative viability (NCI-H2085; first compound 50 µM): 1.07
- relative viability (NCI-H2085; first compound 158.11 µM): 0.543
- relative viability (NCI-H2085; first compound 500 µM): 0.196
- relative viability (NCI-H2087; first compound 5 µM): 1.03
- relative viability (NCI-H2087; first compound 15.81 µM): 0.953
- relative viability (NCI-H2087; first compound 50 µM): 0.926
- relative viability (NCI-H2087; first compound 158.11 µM): 0.135
- relative viability (NCI-H2087; first compound 500 µM): 0.0127
- relative viability (NCI-H2228; first compound 5 µM): 1.04
- relative viability (NCI-H2228; first compound 15.81 µM): 0.755
- relative viability (NCI-H2228; first compound 50 µM): 0.758
- relative viability (NCI-H2228; first compound 158.11 µM): 0.297
- relative viability (NCI-H2228; first compound 500 µM): 0.0138
- relative viability (NCI-H2347; first compound 5 µM): 0.748
- relative viability (NCI-H2347; first compound 15.81 µM): 0.747
- relative viability (NCI-H2347; first compound 50 µM): 0.702
- relative viability (NCI-H2347; first compound 158.11 µM): 0.768
- relative viability (NCI-H2347; first compound 500 µM): 0.734
- relative viability (PC-3 [JPC-3]; first compound 5 µM): 0.819
- relative viability (PC-3 [JPC-3]; first compound 15.81 µM): 0.7
- relative viability (PC-3 [JPC-3]; first compound 50 µM): 0.696
- relative viability (PC-3 [JPC-3]; first compound 158.11 µM): 0.448
- relative viability (PC-3 [JPC-3]; first compound 500 µM): 0.469
- relative viability (SK-LU-1; first compound 5 µM): 0.78
- relative viability (SK-LU-1; first compound 15.81 µM): 0.586
- relative viability (SK-LU-1; first compound 50 µM): 0.857
- relative viability (SK-LU-1; first compound 158.11 µM): 0.195
- relative viability (SK-LU-1; first compound 500 µM): 0.156
- relative viability (SK-MES-1; first compound 5 µM): 1.08
- relative viability (SK-MES-1; first compound 15.81 µM): 1.17
- relative viability (SK-MES-1; first compound 50 µM): 1.1
- relative viability (SK-MES-1; first compound 158.11 µM): 1.03
- relative viability (SK-MES-1; first compound 500 µM): 1
